In BindingDB's records for patent US10941160 (Celgene Quanticel Research, 2021):

Biological target: Bromodomain-containing protein 4 (Homo sapiens, UniProt O60885)
Test: In Vitro Enzyme Inhibition Assay
Experimental: His-tagged BRD4 was cloned, expressed and purified to homogeneity. BRD4 binding and inhibition was assessed by monitoring the interaction of biotinylated H4-tetraacetyl peptide (AnaSpec, H4K5/8/12/16(Ac), biotin-labeled) with the target using the AlphaScreen technology ([…]). […] After 20 min incubation at room temp, Alpha streptavidin donor beads and Nickel Chelate acceptor beads were added to a final concentration of 5 μg/mL.

SMILES | IC50
Cn1cc(-c2cccc(S(O)(O)NC3CC3)c2)c2ccccc2c1=O [US10941160, Example 6] | in the range around 2750 nM
COc1ccc(-c2cn(C)c(=O)c3ccccc23)cc1S(N)(O)O [US10941160, Example 16] | in the range around 2750 nM
CCNS(O)(O)c1cccc(-c2cn(C)c(=O)c3cnccc23)c1 [US10941160, Example 53] | in the range around 2750 nM
COc1ccc(-c2cn(C)c(=O)c3cnccc23)cc1S(O)(O)NCc1ccccc1 [US10941160, Example 54] | > 5000 nM
Cn1cc(-c2cccc(S(N)(O)O)c2)c2ccncc2c1=O [US10941160, Example 55] | > 5000 nM
COc1ccc(-c2cn(C)c(=O)c3cnccc23)cc1S(N)(O)O [US10941160, Example 56] | > 5000 nM
CCNS(O)(O)c1cccc(-c2cn(C)c(=O)c3cc(F)ccc23)c1 [US10941160, Example 59] | in the range around 2750 nM
Cn1cc(-c2cccc(S(N)(O)O)c2)c2ccc(F)cc2c1=O [US10941160, Example 61] | < 500 nM
CCS(O)(O)c1ccc(O)c(-c2cn(C)c(=O)c3ccc(-c4cnn(C)c4)cc23)c1 [US10941160, Example 80] | < 500 nM
CCS(O)(O)c1ccc(OCC2CC2)c(-c2cn(C)c(=O)c3ccc(-c4cnn(C)c4)cc23)c1 [US10941160, Example 82] | < 500 nM
CCS(O)(O)c1cccc(-c2cn(C)c(=O)c(N)n2)c1 [US10941160, Example 105] | > 5000 nM
CCS(O)(O)c1cccc(-c2cc(N)c(=O)n(C)c2)c1 [US10941160, Example 108] | > 5000 nM
CCOc1ccc(S(N)(O)O)cc1-c1ccc(=O)n(C)c1 [US10941160, Example 117] | < 500 nM
Cn1cc(-c2cc(S(N)(O)O)ccc2Oc2ccc(F)cc2F)ccc1=O [US10941160, Example 118] | < 500 nM
CCS(O)(O)c1ccc(Oc2ccc(F)cc2F)c(-c2cc(F)c(=O)n(C)c2)c1 [US10941160, Example 121] | < 500 nM
CCS(O)(O)c1cccc(-c2cn(C)c(=O)c3ccncc23)c1 [US10941160, Example 126] | > 5000 nM
CCS(O)(O)c1cccc(-c2cn(C)c(=O)c3cncn23)c1 [US10941160, Example 133] | > 5000 nM
CCS(O)(O)c1ccc(OCC2CC2)c(-c2cn(C)c(=O)c3ccccc23)c1 [US10941160, Example 135] | < 500 nM
Cn1cc(-c2nc(N3CCC[SH]3(=O)O)ncc2OCC2CC2)c2ccccc2c1=O [US10941160, Example 156] | < 500 nM
CCS(O)(O)c1ccc(OCC2CC2)c(-c2cn(C)c(=O)c3ccc(F)cc23)c1 [US10941160, Example 174] | < 500 nM
CC#CCOc1ccc(S(O)(O)CC)cc1-c1cn(C)c(=O)c2ccccc12 [US10941160, Example 185] | < 500 nM
CCS(O)(O)c1ccc(NCC2CC2)c(-c2cn(C)c(=O)c3ccccc23)c1 [US10941160, Example 193] | < 500 nM

SMILES | IC50
CCS(O)(O)c1ccc(NCC2CC2)c(-c2cn(C)c(=O)c3cc(F)ccc23)c1 [US10941160, Example 195] | < 500 nM
CCS(O)(O)c1ccc(OCC2CC2)c(-c2cn(C)c(=O)c3ccccc23)n1 [US10941160, Example 206] | < 500 nM
COc1ccc(S(O)(O)CCO)cc1-c1cn(C)c(=O)c2ccc(-c3cnn(C)c3)cc12 [US10941160, Example 208] | < 500 nM
CCS(O)(O)c1ccc(OC)c(-c2cn(C)c(=O)c3ccc(-c4cn[nH]c4)cc23)c1 [US10941160, Example 210] | < 500 nM
CCS(O)(O)c1ccc(OCC2CC2)c(-c2cn(C)c(=O)c3c2CCCC3)c1 [US10941160, Example 219] | < 500 nM
CCCOc1ccc(S(O)(O)CC)cc1-c1cn(C)c(=O)c2cnc(-c3cnn(C)c3)nc12 [US10941160, Example 225] | < 500 nM
CCS(O)(O)c1ccc(OCC2CC2)c(-c2cn(C)c(=O)c3cnc(-c4cnn(C)c4)nc23)c1 [US10941160, Example 226] | < 500 nM
CCOc1ccc(S(O)(O)CC)cc1-c1cn(C)c(=O)c2cnc(-c3cnn(C)c3)nc12 [US10941160, Example 227] | < 500 nM
CCS(O)(O)c1ccc(OCC2CC2)c(-c2cn(C)c(=O)c3cncnc23)c1 [US10941160, Example 232] | < 500 nM
CCS(O)(O)c1ccc(OCC2CC2)c(-c2cc(C)c(=O)n(C3CC3)c2)c1 [US10941160, Example 251] | < 500 nM
CCS(O)(O)c1ccc(OCC2CC2)c(-c2cn(C)c(=O)c3occc23)c1 [US10941160, Example 252] | < 500 nM
CCS(O)(O)c1ccc(OCC2CC2)c(-c2cn(C)c(=O)c3sc(C(N)=O)cc23)c1 [US10941160, Example 265] | < 500 nM
CCS(O)(O)c1ccc(OCC2CC2)c(-c2cn(C)c(=O)c3oc(C)cc23)c1 [US10941160, Example 270] | < 500 nM
CCS(O)(O)c1ccc(OCC2CC2)c(-c2cc(Cl)c(=O)n(C)c2)c1 [US10941160, Example 272] | < 500 nM
CCS(O)(O)c1ccc(OCC2CC2)c(-c2cc(F)c(=O)n(C)c2)c1 [US10941160, Example 274] | < 500 nM
CCS(O)(O)c1ccc(OCC2CC2)c(-c2cc(C3CC3)c(=O)n(C)c2)c1 [US10941160, Example 280] | < 500 nM
C#Cc1cc(-c2cc(S(O)(O)CC)ccc2OCC2CC2)cn(C)c1=O [US10941160, Example 284] | < 500 nM
CCS(O)(O)c1ccc(OCC2CC2)c(-c2cc(OC(F)F)c(=O)n(C)c2)c1 [US10941160, Example 287] | < 500 nM
CCS(O)(O)c1ccc(OCC2CC2)c(-c2cc(OCC(F)(F)F)c(=O)n(C)c2)c1 [US10941160, Example 288] | < 500 nM
CCCCc1cnc(NS(O)(O)CC)nc1-c1cc(C)c(=O)n(C)c1 [US10941160, Example 310] | < 500 nM
CCS(O)(O)c1cnc(OCC2CC2)c(-c2cn(C)c(=O)c3ccccc23)c1 [US10941160, Example 322] | < 500 nM
CCS(O)(O)Nc1cc(Oc2ccc(F)cc2F)cc(-c2cc(C)c(=O)n(C)c2)c1 [US10941160, Example 342] | < 500 nM

SMILES | IC50
CCCCc1cnc(NS(O)(O)CC)nc1-c1cc(OC)c(=O)n(C)c1 [US10941160, Example 362] | < 500 nM
CC(C)S(O)(O)c1ccc(OCC2CC2)c(-c2cn(C)c(=O)c3ccccc23)c1 [US10941160, Example 364] | < 500 nM
CCS(O)(O)c1ccc(OCC2CC2)c(-c2cn(C)c(=O)c3c2OCCN3)c1 [US10941160, Example 366] | < 500 nM
CCS(O)(O)c1ccc(OCC2CC2)c(-c2cn(C)c(=O)c3cncn23)c1 [US10941160, Example 368] | < 500 nM
CCS(O)(O)c1ccc(OC2CCC(F)(F)CC2)c(-c2cn(C)c(=O)c3cncn23)c1 [US10941160, Example 373] | < 500 nM
CCS(O)(O)c1ccc(OC2CCCC2)c(-c2cn(C)c(=O)c3cncn23)c1 [US10941160, Example 374] | < 500 nM
CCS(O)(O)c1ccc(NCC2CC2)c(-c2cn(C)c(=O)c3cncn23)c1 [US10941160, Example 375] | < 500 nM
CCS(O)(O)c1ccc(Oc2ccc(F)cc2F)c(-c2cn(C)c(=O)c3cncn23)c1 [US10941160, Example 376] | < 500 nM
CCS(O)(O)c1ccc(OCC2CC2)c(-c2cn(C)c(=O)c3ccoc23)c1 [US10941160, Example 378] | < 500 nM
CC#CCOc1ccc(S(O)(O)CC)cc1-c1cc(OC)c(=O)n(C)c1 [US10941160, Example 389] | < 500 nM
CCC#CCOc1ccc(S(O)(O)CC)cc1-c1cc(OC)c(=O)n(C)c1 [US10941160, Example 390] | < 500 nM
CCS(O)(O)c1ccc(OCC#CC2CC2)c(-c2cc(OC)c(=O)n(C)c2)c1 [US10941160, Example 391] | < 500 nM
COc1ccc2c(=O)n(C)cc(-c3cc(S(O)(O)C(C)C)ccc3OCC3CC3)c2c1 [US10941160, Example 393] | < 500 nM
Cc1cc(-c2cc(S(O)(O)C(C)C)ccc2OCC2CC2)cn(C)c1=O [US10941160, Example 394] | < 500 nM
CCS(O)(O)Nc1cc(OCc2ccccc2)cc(-c2cc(C)c(=O)n(C)c2)c1 [US10941160, Example 395] | < 500 nM
CCS(O)(O)c1ccc(Nc2ccc(F)cc2F)c(-c2cc(C)c(=O)n(C)c2)c1 [US10941160, Example 396] | < 500 nM
CCS(O)(O)c1ccc(NC2CCC(F)(F)CC2)c(-c2cc(C)c(=O)n(C)c2)c1 [US10941160, Example 397] | < 500 nM
CCS(O)(O)c1ccc(OCC2CC2)c(-c2cc(OC)c(=O)n(C)c2)c1 [US10941160, Example 399] | < 500 nM
CCS(O)(O)c1ccc(NCC2CC2)c(-c2cc(NC)c(=O)n(C)c2)c1 [US10941160, Example 408] | < 500 nM
CCS(O)(O)c1ccc(OCC2CC2)c(-c2cc(NC)c(=O)n(C)c2)c1 [US10941160, Example 409] | < 500 nM
CCS(O)(O)Cc1ccc(OCC(F)(F)F)c(-c2cc(C)c(=O)n(C)c2)c1 [US10941160, Example 411] | < 500 nM
CCS(O)(O)c1ccc(NCC2CC2)c(-c2cc(OC)c(=O)n(C)c2)c1 [US10941160, Example 414] | < 500 nM
